Columns and labels:
A375 tumor xenograft = test: Inhibition of tumor growth in A375 tumor xenograft model; type: in vivo, BALB/c female nude mice; details: nude mice, Compound 12.5 mg/kg b.i.d. × 20 i.g., Cisplatin 6 mg/kg q7d × 3 i.p.
Protocol: Cells were implanted in BALB/c female nude mice and grown as tumor xenografts. When tumors achieved 120-200 mm^3, mice were assigned into treatment and control groups using randomized block design based upon their tumor volumes. Each group contained 6 tumor-bearing mice. Tumors were measured twice weekly in two dimensions using a caliper, and the tumor volume was calculated from two-dimensional measurements using the equation V=0.5×a×b^2 where a and b are the long and short diameters of the tumor, respectively. Relative tumor volume (RTV) was defined as TVt/TVi, the ratio of the volume on a given day (TVt) and the volume at the start of treatment (TVi). Relative tumor growth rate (T/C) was defined as RTVT/RTVC, the ratio of relative tumor volume of treatment group (RTVT) and relative tumor volume of control group (RTVC) on a given day. Inhibition of tumor growth in a A375 tumor xenograft model is shown below in Table 6 for a compound of Table 1.

BRAF [1] = biological target: T1, BRAF (Homo sapiens, UniProt P15056); test: Z′-LYTE kinase assay, BRAF (Invitrogen); type: biochemical; details: Z′-LYTE method
T1 construct: purchased Invitrogen
Protocol: (§1) Inhibitory activities of compounds against BRAF or BRAF V600E were measured by Invitrogen using Z′-LYTE® Method as briefly described in the following.
(§2) 4× Test compounds are dissolved in 1% DMSO. […] ATP solutions are diluted to a 4×ATP working concentration in Kinase Buffer (50 mM HEPES pH 7.5, 0.01% BRIJ-35, 10 mM MgCl2, 1 mM EGTA).
(§3) Reaction starts by 30-second shaking of mixture consisting of 2.5 μL4× test compound, […] and 2.5 μL 4×ATP Solution on Bar-coded Corning, low volume NBS, black 384-well plate (Corning Cat. #3676). Then the mixture is incubated for 60-minute at room temperature for the kinase reaction, followed by addition of 5 μL of a 1:1024 dilution of development reagent A and 30-second plate shake. The mixture is then incubated for another 60-minute at room temperature for development reaction. Finally fluorescence is read by plate reader.

BRAF V600E [2] = biological target: T2, BRAF V600E (Homo sapiens, UniProt P15056, V600E); test: Z′-LYTE kinase assay, BRAF V600E (Invitrogen); type: biochemical; details: Z′-LYTE method
T2 construct: purchased Invitrogen
Protocol: as §1, §2, §3

[3] = system: A375 (human melanoma cell, BRAF V600E Mutant); test: Inhibition of cancer cell growth, MTT or MTS assay, A375; type: cell-based; details: A-375, 72 h, highest concentration 10 μM (Table 5)
Protocol: (§4) A375 (human melanoma cell, BRAF V600E Mutant), CHL-1 (human melanoma cell, BRAF wild type), SK-MEL-28 (human melanoma cell, BRAF V600E Mutant) and SK-MEL-31(human melanoma cell, Braf WT Mutant) were purchased from ATCC (American Type Culture Collection, Manassas, Va.). All cell lines were maintained in RPMI 1640 (Hyclone) or DMEM (Hyclone) supplemented with 10% fetal bovine serum (FBS, Hyclone), glutamine (2 mM, Hyclone), and antibiotics (penicillin 100 U/mL and streptomycin 50 μg/mL) at 37° C. in a humidified atmosphere of 5% CO2 in air.
(§5) To test IC50 of inhibition of individual compounds against each cell line, A375, SK-MEL-28and SK-MEL-31 cells were first plated in 96-well plates at densities of 3000 cells/well, and CHL-1 2500 cells/well. Cells were then incubated to allow cells to adhere and grow for 24 h. Cells were then treated with a series of concentrations of compounds for 72 h. The highest concentration of compounds was 10 μM for A375 and SK-MEL-28 cells and 100 μM for CHL-1 and SK-MEL-31 cells. Cells were then removed from the incubator and medium was removed by inverting and tapping the plates. 100 μL of MTT (0.5 mg/ml) or 10 μL or MTS was added to each well followed by an incubated at 37° C. for 4 h. Then MTT was removed and 200 μL of DMSO was added to each well, followed by reading the ODs at 570 nm after a 5 second shaking cycle in a 96-well spectrophotometer. For MTS method, MTS was not removed, and the incubated solutions were directly put in a 96-well spectrophotometer for the reading of the ODs at 492 nm.
(§6) IC50 was calculated by plotting the concentration of compound vs the percentage of inhibition in treated wells using GraphPad Prism 5. […] The scale utilized in Table 5 is as follows: +++ less than 500 nM; ++ between 500 nM and 1 μM; and + greater than 1 μM.

[4] = system: SK-MEL-28 (human melanoma cell, BRAF V600E Mutant); test: Inhibition of cancer cell growth, MTT or MTS assay, SK-MEL-28; type: cell-based; details: 72 h, highest concentration 10 μM
Protocol: as §4, §5, §6

[5] = system: CHL-1 (human melanoma cell, BRAF wild type); test: Inhibition of cancer cell growth, MTT or MTS assay, CHL-1; type: cell-based; details: 72 h, highest concentration 100 μM
Protocol: as §4, §5, §6

[6] = system: SK-MEL-31 (human melanoma cell, Braf WT Mutant); test: Inhibition of cancer cell growth, MTT or MTS assay, SK-MEL-31; type: cell-based; details: 72 h, highest concentration 100 μM
Protocol: as §4, §5, §6

BRAF [7] = biological target: T1, BRAF; test: LanthaScreen kinase assay, BRAF; type: biochemical; details: ATP 1 μM
Protocol: (§7) The inhibitory activities of compounds against BRAF or BRAF V600E protein were measured using Invitrogne's LanthaScreen™ kinase assay which is based on fluorescein-labeled MAP2K1 as a substrate. The assay procedure is described as follows.
(§8) The scale utilized in Table 3 is as follows: ++++ less than 50 nM; +++ between 50 and 100 nM; ++ between 100 nM and 1 μM; and + greater than 1 μM.

BRAF V600E [8] = biological target: T2, BRAF V600E; test: LanthaScreen kinase assay, BRAF V600E; type: biochemical; details: ATP 10 μM
Protocol: as §7, §8

A549 cells = test: Inhibition of cancer cell growth, MTT assay, A549; type: cell-based; details: Homo sapiens, 72 h
Protocol: (§9) Inhibition of cell growth by compounds was measured using MTT assay (Mosmann, T., Journal of Immunological Methods, 1983, 65, 55-63). Tumor cell lines were purchased from ATCC (American Type Culture Collection, Manassas, Va.). All cell lines were maintained in RPMI 1640 (Hyclone) supplemented with 10% fetal bovine serum (FBS, Hyclone), glutamine (2 mM, Hyclone), and antibiotics (penicillin 100 U/mL and streptomycin 50 μg/mL) at 37° C. in a humidified atmosphere of 5% CO2 in air. Taxol (as a positive control, Sigma) and compounds were dissolved in DMSO (Sigma), and the final concentration of DMSO in the medium was 1%. Tumor cells were plated in 96-well plates at densities of about 4000 cells/well of a 96-well plate and allowed to adhere/grow for 24 h. They were then treated with various concentrations of drug for 72 h. 3-(4,5-Dimethylthiazol-2-yl)-2,5-diphenyltetrazolium bromide (MTT, Sigma) was used to determine the number of viable cells at the time of compound addition and the number of cells remaining after 72 h compound exposure. The number of cells remaining after 72 h was compared to the number of viable cells at the time of compound addition by measuring the absorbance at 570 nm, allowing for the calculation of growth inhibition.
(§10) All concentrations of compounds were tested in triplicate and controls were averaged over 4 wells. IC50 was calculated by plotting the concentration of compound vs the percentage of inhibition in treated wells using GraphPad Prism 5.
(§11) The scale utilized in Table 4 is as follows: +++ less than 500 nM; ++ between 500 nM and 1 μM; and + greater than 1 μM.

A375 cells = test: Inhibition of cancer cell growth, MTT assay, A375; type: cell-based; details: Homo sapiens, A-375, 72 h (Table 4)
Protocol: as §9, §10, §11

T1 sequence (P15056 whole entry): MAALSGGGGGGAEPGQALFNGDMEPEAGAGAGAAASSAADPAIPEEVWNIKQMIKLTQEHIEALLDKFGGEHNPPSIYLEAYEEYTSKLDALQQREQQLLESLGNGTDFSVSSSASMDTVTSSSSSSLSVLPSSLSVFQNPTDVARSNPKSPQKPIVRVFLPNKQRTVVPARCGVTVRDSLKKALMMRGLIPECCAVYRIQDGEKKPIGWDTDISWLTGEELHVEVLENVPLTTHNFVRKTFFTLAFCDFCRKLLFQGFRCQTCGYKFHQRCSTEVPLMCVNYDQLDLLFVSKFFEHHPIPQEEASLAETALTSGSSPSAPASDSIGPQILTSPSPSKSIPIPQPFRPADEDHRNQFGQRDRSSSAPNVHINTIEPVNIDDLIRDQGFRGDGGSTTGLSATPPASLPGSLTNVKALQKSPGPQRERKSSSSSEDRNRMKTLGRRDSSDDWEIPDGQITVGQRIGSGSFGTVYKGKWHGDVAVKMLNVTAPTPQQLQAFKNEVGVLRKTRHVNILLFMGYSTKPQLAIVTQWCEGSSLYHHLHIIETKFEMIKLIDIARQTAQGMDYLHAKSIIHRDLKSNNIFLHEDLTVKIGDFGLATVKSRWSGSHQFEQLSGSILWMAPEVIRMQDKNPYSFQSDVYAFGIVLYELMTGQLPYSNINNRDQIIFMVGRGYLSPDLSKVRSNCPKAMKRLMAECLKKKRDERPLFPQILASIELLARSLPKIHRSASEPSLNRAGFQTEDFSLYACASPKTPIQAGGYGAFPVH
T2 sequence (P15056 whole entry V600E): as the sequence (P15056 whole entry) above, with V600E counted along it

| Compound | inhibition at 1 µM (BRAF [1]) [%] | inhibition at 1 µM (BRAF V600E [2]) [%] | IC50 [3] [µM] | IC50 [4] [µM] | IC50 CHL-1 [5] | IC50 SK-MEL-31 [6] | IC50 (BRAF [7]) [µM] | IC50 (BRAF V600E [8]) [µM] | IC50 (A549 cells) [µM] | IC50 (A375 cells) [µM] | Tumor Volume Post-treatment (A375 tumor xenograft) [mm^3] | Tumor Volume Pre-treatment (A375 tumor xenograft) [mm^3] | T/C (relative tumor growth rate, RTVT/RTVC) (A375 tumor xenograft; *p < 0.05, **p < 0.01) [%*] |
| --- | --- | --- | --- | --- | --- | --- | --- | --- | --- | --- | --- | --- | --- |
| N.N.[Cl][Pt][Cl] [Cisplatin] |  |  |  |  |  |  |  |  |  |  | 647 | 136 | 44.4 |
| CCCS(=O)(=O)Nc1cc(F)c(F)c(C(=O)c2ccc3ncc(N4CCOCC4)nc3c2)c1F [Compound C09, N-(2,4,5-trifluoro-3-(3-morpholinoquinoxaline-6-carbonyl)phenyl)propane-1-sulfonamide] | > 89 | > 89 | < 0.5 | < 0.5 | No inhibition | No inhibition | 0.05 to 0.1 | < 0.05 |  |  |  |  |  |
| CCCS(=O)(=O)Nc1ccc(F)c(C(=O)c2ccc3nccnc3c2)c1Cl [Compound C06, N-(2-chloro-4-fluoro-3-(quinoxaline-6-carbonyl)phenyl)propane-1-sulfonamide] | 70 to 89 | > 89 | < 0.5 |  | No inhibition |  | 0.1 to 1 | < 0.05 |  |  |  |  |  |

The next lines start with results.

| inhibition at 1 µM (BRAF [1]) [%] | inhibition at 1 µM (BRAF V600E [2]) [%] | IC50 [3] [µM] | IC50 [4] [µM] | IC50 CHL-1 [5] | IC50 SK-MEL-31 [6] | IC50 (BRAF [7]) [µM] | IC50 (BRAF V600E [8]) [µM] | IC50 (A549 cells) [µM] | IC50 (A375 cells) [µM] | Compound | Tumor Volume Post-treatment (A375 tumor xenograft) [mm^3] | Tumor Volume Pre-treatment (A375 tumor xenograft) [mm^3] | T/C (relative tumor growth rate, RTVT/RTVC) (A375 tumor xenograft; *p < 0.05, **p < 0.01) [%*] |
| --- | --- | --- | --- | --- | --- | --- | --- | --- | --- | --- | --- | --- | --- |
| 70 to 89 | > 89 | < 0.5 | 0.5 to 1 | No inhibition | No inhibition |  |  |  |  | CCCS(=O)(=O)Nc1cc(F)c(F)c(C(=O)c2ccc3ncc(-c4ccc(Cl)cc4)nc3c2)c1F [Compound C12, N-(3-(3-(4-chlorophenyl)quinoxaline-6-carbonyl)-2,4,5-trifluorophenyl)propane-1-sulfonamide] |  |  |  |
| > 89 | 70 to 89 |  |  |  |  |  |  | > 1 | < 0.5 | CCCS(=O)(=O)Nc1cc(F)c(F)c(C(=O)c2ccc3ncc(OC)nc3c2)c1F [Compound C10, N-(2,4,5-trifluoro-3-(3-methoxyquinoxaline-6-carbonyl)phenyl)propane-1-sulfonamide] |  |  |  |
| > 89 | > 89 | < 0.5 | < 0.5 | No inhibition | No inhibition | 0.05 to 0.1 | < 0.05 |  |  | CCCS(=O)(=O)Nc1cc(F)c(F)c(C(=O)c2ccc3nccnc3c2)c1F [Compound C04, N-(2,4,5-trifluoro-3-(quinoxaline-6-carbonyl)phenyl)propane-1-sulfonamide] |  |  |  |
